In article PMC8822749, “Ionotropic receptors in the turnip moth Agrotis segetum respond to repellent medium-chain fatty acids” (BMC Biology, 2022):

What was measured:
Assay in all cases: two-electrode voltage clamp, Xenopus oocytes
Assay type in all cases: cell-based
AsegIR75q.1/AsegIR8a [1] = biological target: T1, AsegIR75q.1/AsegIR8a (Agrotis segetum, UniProt Z9J2I4KL46); conditions: agonist, weak; co-expressed with AsegIR8a; -80 mV; pH 7.6; 0.1% DMSO; 100 μM
T1 construct: full-length cDNA in pCS2+, cRNA co-injected with AsegIR8a cRNA in Xenopus laevis oocytes; with Ionotropic receptor 8a
T1 sequence (Z9J2I4KL46 1-637): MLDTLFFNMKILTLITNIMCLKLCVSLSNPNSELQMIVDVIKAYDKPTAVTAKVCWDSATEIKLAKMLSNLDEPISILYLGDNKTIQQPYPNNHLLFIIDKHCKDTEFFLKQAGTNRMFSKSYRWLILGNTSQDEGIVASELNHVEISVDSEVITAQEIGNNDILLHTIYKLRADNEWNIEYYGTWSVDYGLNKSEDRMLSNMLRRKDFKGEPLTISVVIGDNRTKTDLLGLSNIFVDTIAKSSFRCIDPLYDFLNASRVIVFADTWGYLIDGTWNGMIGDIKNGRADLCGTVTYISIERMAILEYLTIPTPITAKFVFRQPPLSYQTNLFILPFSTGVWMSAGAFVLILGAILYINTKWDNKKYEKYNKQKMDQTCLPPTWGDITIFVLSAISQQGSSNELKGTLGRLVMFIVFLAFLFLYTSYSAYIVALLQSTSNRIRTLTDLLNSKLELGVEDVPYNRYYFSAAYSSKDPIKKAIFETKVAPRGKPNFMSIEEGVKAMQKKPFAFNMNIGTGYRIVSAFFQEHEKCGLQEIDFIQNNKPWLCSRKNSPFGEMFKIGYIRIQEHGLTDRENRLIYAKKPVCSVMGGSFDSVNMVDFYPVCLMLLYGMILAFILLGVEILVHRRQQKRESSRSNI

AsegIR75p.1/AsegIR8a = biological target: T2, AsegIR75p.1/AsegIR8a (Agrotis segetum, UniProt Z9OWS8C5E7); conditions: agonist; co-expressed with AsegIR8a; -80 mV; pH 7.6; 0.1% DMSO; 100 μM and dose-response
T2 construct: full-length cDNA in pCS2+, cRNA co-injected with AsegIR8a cRNA in Xenopus laevis oocytes; with Ionotropic receptor 8a
T2 sequence (Z9OWS8C5E7 1-676): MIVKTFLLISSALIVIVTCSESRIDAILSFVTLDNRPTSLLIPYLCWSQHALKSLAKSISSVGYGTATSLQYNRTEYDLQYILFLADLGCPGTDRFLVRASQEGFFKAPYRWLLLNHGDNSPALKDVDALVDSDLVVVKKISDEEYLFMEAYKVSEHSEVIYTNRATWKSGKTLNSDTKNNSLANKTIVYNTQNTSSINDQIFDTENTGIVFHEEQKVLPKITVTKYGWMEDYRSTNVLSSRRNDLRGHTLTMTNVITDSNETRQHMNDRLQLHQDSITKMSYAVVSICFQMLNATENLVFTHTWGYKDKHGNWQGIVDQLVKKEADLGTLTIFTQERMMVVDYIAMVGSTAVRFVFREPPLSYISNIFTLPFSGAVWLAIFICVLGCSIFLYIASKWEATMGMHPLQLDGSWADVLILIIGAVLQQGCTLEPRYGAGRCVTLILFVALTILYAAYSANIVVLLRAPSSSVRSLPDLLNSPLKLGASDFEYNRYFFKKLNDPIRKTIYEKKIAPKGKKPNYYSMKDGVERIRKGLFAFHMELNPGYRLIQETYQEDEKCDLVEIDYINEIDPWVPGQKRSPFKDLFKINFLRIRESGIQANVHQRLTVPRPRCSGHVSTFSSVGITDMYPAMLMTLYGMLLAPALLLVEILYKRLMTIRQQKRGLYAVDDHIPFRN

AsegIR75q.1/AsegIR8a [2] = biological target: T1, AsegIR75q.1/AsegIR8a; conditions: agonist; co-expressed with AsegIR8a; -80 mV; pH 7.6; 0.1% DMSO; dose-response

Row | Structure (SMILES) | two-electrode voltage clamp, Xenopus oocytes (AsegIR75q.1/AsegIR8a [1]) | two-electrode voltage clamp, Xenopus oocytes (AsegIR75p.1/AsegIR8a) | further results
1 | CCCCCCCC=O [octanal] | This receptor also responded slightly to heptanoic acid and octanal |  | 
2 | CCCCCC(=O)O [hexanoic acid] |  | The strongest response was elicited by hexanoic acid | 
3 | CC/C=C\CCO [(Z)-3-hexenol] |  | hexanoic acid, followed by (Z)-3-hexenol, (E)-2-hexenal, and hexanal | 
4 | CCCCCCCCC(=O)O [nonanoic acid] |  |  | threshold concentration (AsegIR75q.1/AsegIR8a [2]): 1 µM
5 | CCCCCCC(=O)O [heptanoic acid] | This receptor also responded slightly to heptanoic acid and octanal |  | 
